Test results: paper PMC9898036, “VIP152 is a selective CDK9 inhibitor with pre-clinical in vitro and in vivo efficacy in chronic lymphocytic leukemia” (Leukemia, 2022)

Experiments:
MAP3K4 = MAP3K4 (Homo sapiens, UniProt Q9Y6R4); test: KINOMEscan: MAP3K4; type: binding; conditions: 1000 nM, read-out: Percent Control
TNIK = TNIK (Homo sapiens, UniProt Q9UKE5); test: KINOMEscan: TNIK; type: binding; conditions: 100 nM, read-out: Percent Control
ALK(L1196M) = ALK(L1196M) (Homo sapiens, UniProt Q9UM73, L1196M); test: KINOMEscan: ALK(L1196M); type: binding; conditions: 1000 nM, read-out: Percent Control
Chain of ALK(L1196M) (Q9UM73 19-1620 L1196M): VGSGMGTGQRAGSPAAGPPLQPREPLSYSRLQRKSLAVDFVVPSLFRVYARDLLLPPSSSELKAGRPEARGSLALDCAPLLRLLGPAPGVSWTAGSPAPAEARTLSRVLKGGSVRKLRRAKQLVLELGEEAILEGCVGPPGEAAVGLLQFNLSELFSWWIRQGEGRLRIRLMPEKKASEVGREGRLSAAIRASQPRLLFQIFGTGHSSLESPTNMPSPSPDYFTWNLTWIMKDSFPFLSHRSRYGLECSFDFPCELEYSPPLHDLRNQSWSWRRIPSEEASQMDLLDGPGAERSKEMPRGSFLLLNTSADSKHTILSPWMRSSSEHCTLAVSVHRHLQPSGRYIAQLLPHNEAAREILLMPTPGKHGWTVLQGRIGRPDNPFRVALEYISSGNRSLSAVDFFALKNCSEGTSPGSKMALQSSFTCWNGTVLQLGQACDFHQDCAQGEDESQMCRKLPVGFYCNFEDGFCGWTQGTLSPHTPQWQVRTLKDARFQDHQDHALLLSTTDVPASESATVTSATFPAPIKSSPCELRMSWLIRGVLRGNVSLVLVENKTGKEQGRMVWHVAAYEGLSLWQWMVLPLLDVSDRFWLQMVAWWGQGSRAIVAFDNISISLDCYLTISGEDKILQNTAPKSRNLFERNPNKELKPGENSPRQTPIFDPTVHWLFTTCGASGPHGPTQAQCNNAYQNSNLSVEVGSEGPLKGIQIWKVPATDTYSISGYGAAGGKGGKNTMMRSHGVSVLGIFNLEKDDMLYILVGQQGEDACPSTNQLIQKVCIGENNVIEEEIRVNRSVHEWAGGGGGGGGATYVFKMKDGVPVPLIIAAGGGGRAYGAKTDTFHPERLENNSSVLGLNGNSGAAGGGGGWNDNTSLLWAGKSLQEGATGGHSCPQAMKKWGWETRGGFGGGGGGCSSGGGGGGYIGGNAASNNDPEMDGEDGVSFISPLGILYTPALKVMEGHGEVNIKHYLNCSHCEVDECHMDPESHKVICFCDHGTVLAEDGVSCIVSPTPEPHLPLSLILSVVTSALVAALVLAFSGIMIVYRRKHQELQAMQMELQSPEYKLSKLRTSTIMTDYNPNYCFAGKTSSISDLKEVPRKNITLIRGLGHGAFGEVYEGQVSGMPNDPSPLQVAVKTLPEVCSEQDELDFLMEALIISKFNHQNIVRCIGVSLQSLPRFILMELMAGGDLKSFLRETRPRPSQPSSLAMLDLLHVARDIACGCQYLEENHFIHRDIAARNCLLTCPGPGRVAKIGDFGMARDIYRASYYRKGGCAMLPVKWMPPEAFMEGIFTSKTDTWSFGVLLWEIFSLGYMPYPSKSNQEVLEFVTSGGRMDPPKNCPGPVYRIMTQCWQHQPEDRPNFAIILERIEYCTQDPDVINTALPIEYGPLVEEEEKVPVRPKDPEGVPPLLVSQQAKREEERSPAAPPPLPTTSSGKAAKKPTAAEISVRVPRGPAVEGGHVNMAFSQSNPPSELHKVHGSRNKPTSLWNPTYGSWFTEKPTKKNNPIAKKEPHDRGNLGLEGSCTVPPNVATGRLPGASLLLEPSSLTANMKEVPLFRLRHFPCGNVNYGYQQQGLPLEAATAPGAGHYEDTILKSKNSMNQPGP

RIPK4 = RIPK4 (Homo sapiens, UniProt P57078); test: KINOMEscan: RIPK4; type: binding; conditions: 100 nM, read-out: Percent Control
Chain of RIPK4 (P57078 whole entry): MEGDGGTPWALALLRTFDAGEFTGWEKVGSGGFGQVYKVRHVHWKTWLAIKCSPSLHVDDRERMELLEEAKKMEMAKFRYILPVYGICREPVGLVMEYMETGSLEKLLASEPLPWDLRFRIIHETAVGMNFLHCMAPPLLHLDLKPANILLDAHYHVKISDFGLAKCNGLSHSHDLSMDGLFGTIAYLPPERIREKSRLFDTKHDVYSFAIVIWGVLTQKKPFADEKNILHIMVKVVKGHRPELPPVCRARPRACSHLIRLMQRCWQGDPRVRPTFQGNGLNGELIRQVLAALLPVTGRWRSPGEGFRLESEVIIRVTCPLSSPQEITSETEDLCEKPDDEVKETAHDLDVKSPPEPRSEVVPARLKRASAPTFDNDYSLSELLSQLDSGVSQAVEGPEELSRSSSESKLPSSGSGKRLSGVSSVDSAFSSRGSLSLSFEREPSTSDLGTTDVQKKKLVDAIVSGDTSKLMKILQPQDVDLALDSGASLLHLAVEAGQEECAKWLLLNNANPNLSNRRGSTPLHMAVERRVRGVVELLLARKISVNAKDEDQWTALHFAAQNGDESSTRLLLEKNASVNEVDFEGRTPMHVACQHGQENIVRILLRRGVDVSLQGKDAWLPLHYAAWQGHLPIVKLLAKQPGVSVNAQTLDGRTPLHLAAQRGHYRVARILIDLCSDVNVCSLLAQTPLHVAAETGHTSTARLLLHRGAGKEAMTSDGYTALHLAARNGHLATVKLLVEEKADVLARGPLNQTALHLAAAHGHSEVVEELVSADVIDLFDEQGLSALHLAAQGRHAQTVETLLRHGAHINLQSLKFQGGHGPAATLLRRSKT

DRAK1 = DRAK1 (Homo sapiens, UniProt Q9UEE5); test: KINOMEscan: DRAK1; type: binding; conditions: 1000 nM, read-out: Percent Control
Imidazoline I2, Central = test: Eurofins Diversity Panel; type: binding; conditions: rat
EPHA1 = EPHA1 (Homo sapiens, UniProt P21709); test: KINOMEscan: EPHA1; type: binding; conditions: 1000 nM, read-out: Percent Control
EIF2AK1 = EIF2AK1 (Homo sapiens, UniProt Q9BQI3); test: KINOMEscan: EIF2AK1; type: binding; conditions: 1000 nM, read-out: Percent Control
TLK1 = TLK1 (Homo sapiens, UniProt Q9UKI8); test: KINOMEscan: TLK1; type: binding; conditions: 100 nM, read-out: Percent Control
[1] = target: TYK2(JH1domain-catalytic) (Homo sapiens, UniProt P29597); test: KINOMEscan: TYK2(JH1domain-catalytic); type: binding; conditions: 100 nM, read-out: Percent Control
DYRK1B = DYRK1B (Homo sapiens, UniProt Q9Y463); test: KINOMEscan: DYRK1B; type: binding; conditions: 1000 nM, read-out: Percent Control
PKNB(M.tuberculosis) = PKNB(M.tuberculosis) (Mycobacterium tuberculosis, UniProt P9WI81); test: DiscoverX KINOMEscan kinase profiling: PKNB(M.tuberculosis); type: binding; conditions: PKNB(M.tuberculosis) (Entrez pknB); 100 nM; read-out: Percent Control
EPHB6 = EPHB6 (Homo sapiens, UniProt O15197); test: KINOMEscan: EPHB6; type: binding; conditions: 1000 nM, read-out: Percent Control
CAMK2A = CAMK2A (Homo sapiens, UniProt Q9UQM7); test: KINOMEscan: CAMK2A; type: binding; conditions: 1000 nM, read-out: Percent Control
HPK1 = HPK1 (Homo sapiens, UniProt Q92918); test: KINOMEscan: HPK1; type: binding; conditions: 1000 nM, read-out: Percent Control
EGFR(L858R,T790M) = EGFR(L858R,T790M) (Homo sapiens, UniProt P00533, L858R/T790M); test: KINOMEscan: EGFR(L858R,T790M); type: binding; conditions: 1000 nM, read-out: Percent Control
CDK4 = CDK4 (Homo sapiens, UniProt P11802); test: KINOMEscan: CDK4; type: binding; conditions: 1000 nM, read-out: Percent Control
DAPK2 = DAPK2 (Homo sapiens, UniProt Q9UIK4); test: KINOMEscan: DAPK2; type: binding; conditions: 1000 nM, read-out: Percent Control
MAP4K2 = MAP4K2 (Homo sapiens, UniProt Q12851); test: KINOMEscan: MAP4K2; type: binding; conditions: 1000 nM, read-out: Percent Control
ULK1 = ULK1 (Homo sapiens, UniProt O75385); test: KINOMEscan: ULK1; type: binding; conditions: 100 nM, read-out: Percent Control
Transporter, GABA = Transporter, GABA (Rattus norvegicus, UniProt P23978); test: Eurofins Diversity Panel; type: binding; conditions: Conc. 10 μM
Tachykinin NK1 = Tachykinin NK1 (Homo sapiens, UniProt P25103); test: Eurofins Diversity Panel; type: binding; conditions: hum, Conc. 10 μM
Endothelin ETB = Endothelin ETB (Homo sapiens, UniProt P24530); test: Eurofins Diversity Panel; type: binding; conditions: hum, Conc. 10 μM
[2] = target: Nicotinic Acetylcholine α1, Bungarotoxin (Homo sapiens, UniProt P02708+P07510+Q07001); test: Eurofins Diversity Panel; type: binding; conditions: read-out: % Inh.
Chain of Nicotinic Acetylcholine α1, Bungarotoxin (Q07001 22-517): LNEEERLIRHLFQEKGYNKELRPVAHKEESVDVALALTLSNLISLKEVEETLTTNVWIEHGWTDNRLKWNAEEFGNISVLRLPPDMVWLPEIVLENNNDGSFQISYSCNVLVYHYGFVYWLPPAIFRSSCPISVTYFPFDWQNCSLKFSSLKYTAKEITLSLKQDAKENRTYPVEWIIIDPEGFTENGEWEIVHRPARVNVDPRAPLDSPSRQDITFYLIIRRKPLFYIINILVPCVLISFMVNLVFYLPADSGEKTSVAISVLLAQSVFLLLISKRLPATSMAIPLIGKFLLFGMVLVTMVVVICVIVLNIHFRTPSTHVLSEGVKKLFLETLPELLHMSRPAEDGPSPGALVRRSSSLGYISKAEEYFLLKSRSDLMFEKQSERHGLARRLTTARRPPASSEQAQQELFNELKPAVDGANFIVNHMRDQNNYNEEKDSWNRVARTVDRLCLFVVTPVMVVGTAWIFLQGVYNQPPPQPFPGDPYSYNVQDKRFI
Chain of Nicotinic Acetylcholine α1, Bungarotoxin (P07510 23-517): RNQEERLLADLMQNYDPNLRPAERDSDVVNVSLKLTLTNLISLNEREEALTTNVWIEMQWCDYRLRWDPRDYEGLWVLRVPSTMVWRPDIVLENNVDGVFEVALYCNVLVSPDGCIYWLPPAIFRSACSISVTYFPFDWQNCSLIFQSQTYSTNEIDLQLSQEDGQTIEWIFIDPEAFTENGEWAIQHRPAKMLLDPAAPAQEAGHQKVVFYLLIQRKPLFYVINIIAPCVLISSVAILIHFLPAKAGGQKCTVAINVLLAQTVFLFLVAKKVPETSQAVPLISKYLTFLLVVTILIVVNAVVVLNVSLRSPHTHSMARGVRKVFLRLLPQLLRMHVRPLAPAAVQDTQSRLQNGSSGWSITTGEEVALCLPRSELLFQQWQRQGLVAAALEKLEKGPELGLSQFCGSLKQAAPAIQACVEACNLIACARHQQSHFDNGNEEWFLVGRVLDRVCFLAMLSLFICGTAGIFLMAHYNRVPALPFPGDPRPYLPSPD
Chain of Nicotinic Acetylcholine α1, Bungarotoxin (P11230 24-501, further chain): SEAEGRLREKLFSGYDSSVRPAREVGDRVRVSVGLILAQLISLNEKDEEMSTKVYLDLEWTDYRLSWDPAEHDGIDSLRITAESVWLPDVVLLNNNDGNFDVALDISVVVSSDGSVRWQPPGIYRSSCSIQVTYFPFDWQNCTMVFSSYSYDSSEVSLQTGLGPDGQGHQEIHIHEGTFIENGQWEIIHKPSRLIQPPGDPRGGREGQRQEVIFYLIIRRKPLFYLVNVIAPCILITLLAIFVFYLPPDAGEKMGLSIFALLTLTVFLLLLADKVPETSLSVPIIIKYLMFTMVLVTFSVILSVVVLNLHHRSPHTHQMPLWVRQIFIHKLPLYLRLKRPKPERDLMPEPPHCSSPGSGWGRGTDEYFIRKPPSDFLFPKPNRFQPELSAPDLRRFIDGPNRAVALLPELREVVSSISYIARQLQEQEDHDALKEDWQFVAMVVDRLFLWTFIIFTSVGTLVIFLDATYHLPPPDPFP
Chain of Nicotinic Acetylcholine α1, Bungarotoxin (P02708 21-457): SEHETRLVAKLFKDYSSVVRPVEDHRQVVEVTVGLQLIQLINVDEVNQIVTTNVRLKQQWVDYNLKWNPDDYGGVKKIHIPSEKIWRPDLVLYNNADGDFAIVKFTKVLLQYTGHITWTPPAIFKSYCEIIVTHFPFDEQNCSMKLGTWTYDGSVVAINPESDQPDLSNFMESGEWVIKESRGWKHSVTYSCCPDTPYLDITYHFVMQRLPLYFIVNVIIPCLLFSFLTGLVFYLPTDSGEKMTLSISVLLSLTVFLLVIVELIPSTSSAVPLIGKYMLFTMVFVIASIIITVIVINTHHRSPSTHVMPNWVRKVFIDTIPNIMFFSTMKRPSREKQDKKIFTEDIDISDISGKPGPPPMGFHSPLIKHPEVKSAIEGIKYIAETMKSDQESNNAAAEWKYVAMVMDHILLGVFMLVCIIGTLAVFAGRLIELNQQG

MEK2 = MEK2 (Homo sapiens, UniProt P36507); test: KINOMEscan: MEK2; type: binding; conditions: 1000 nM, read-out: Percent Control
EGFR(L858R) = EGFR(L858R) (Homo sapiens, UniProt P00533, L858R); test: KINOMEscan: EGFR(L858R); type: binding; conditions: 1000 nM, read-out: Percent Control
EGFR(T790M) = EGFR(T790M) (Homo sapiens, UniProt P00533, T790M); test: KINOMEscan: EGFR(T790M); type: binding; conditions: 1000 nM, read-out: Percent Control
ERBB3 = ERBB3 (Homo sapiens, UniProt P21860); test: KINOMEscan: ERBB3; type: binding; conditions: 1000 nM, read-out: Percent Control
Dopamine D1 = Dopamine D1 (Homo sapiens, UniProt P21728); test: Eurofins Diversity Panel; type: binding; conditions: hum, Conc. 10 μM
Chain of Dopamine D1 (P21728 whole entry): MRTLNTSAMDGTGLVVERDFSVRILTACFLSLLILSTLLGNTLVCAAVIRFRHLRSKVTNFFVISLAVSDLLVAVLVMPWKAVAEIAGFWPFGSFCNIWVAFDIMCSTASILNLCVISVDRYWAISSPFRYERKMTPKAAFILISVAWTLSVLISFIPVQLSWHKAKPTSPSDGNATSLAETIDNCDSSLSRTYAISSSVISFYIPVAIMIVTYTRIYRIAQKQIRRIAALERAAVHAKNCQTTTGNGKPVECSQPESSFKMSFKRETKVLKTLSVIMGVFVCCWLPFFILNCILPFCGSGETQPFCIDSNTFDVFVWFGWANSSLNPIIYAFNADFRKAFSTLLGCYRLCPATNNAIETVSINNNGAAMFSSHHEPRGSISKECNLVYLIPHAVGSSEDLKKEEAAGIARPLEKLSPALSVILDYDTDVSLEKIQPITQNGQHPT

FGR = FGR (Homo sapiens, UniProt P09769); test: KINOMEscan: FGR; type: binding; conditions: 1000 nM, read-out: Percent Control
RIOK3 = RIOK3 (Homo sapiens, UniProt O14730); test: KINOMEscan: RIOK3; type: binding; conditions: 100 nM, read-out: Percent Control
IKK-alpha = IKK-alpha (Homo sapiens, UniProt O15111); test: KINOMEscan: IKK-alpha; type: binding; conditions: 1000 nM, read-out: Percent Control
Endothelin ETA = Endothelin ETA (Homo sapiens, UniProt P25101); test: Eurofins Diversity Panel; type: binding; conditions: hum, Conc. 10 μM
Neuropeptide Y Y1 = Neuropeptide Y Y1 (Homo sapiens, UniProt P25929); test: Eurofins Diversity Panel; type: binding; conditions: hum, Conc. 10 μM
SgK110 = SgK110 (Homo sapiens, UniProt P0C264); test: KINOMEscan: SgK110; type: binding; conditions: 100 nM, read-out: Percent Control
GAK = GAK (Homo sapiens, UniProt O14976); test: KINOMEscan: GAK; type: binding; conditions: 1000 nM, read-out: Percent Control
DCAMKL1 = DCAMKL1 (Homo sapiens, UniProt O15075); test: KINOMEscan: DCAMKL1; type: binding; conditions: 1000 nM, read-out: Percent Control
Calcium Channel N-Type = Calcium Channel N-Type (Rattus norvegicus, UniProt Q02294); test: Eurofins Diversity Panel; type: binding; conditions: Conc. 10 μM
DYRK1A = DYRK1A (Homo sapiens, UniProt Q13627); test: KINOMEscan: DYRK1A; type: binding; conditions: 1000 nM, read-out: Percent Control
GSK3α = GSK3α (Homo sapiens, UniProt P49840); test: NanoBRET target engagement assay (HEK293); type: cell-based

Structure (SMILES): COc1cc(F)ccc1-c1cc(Nc2cc(CS(C)(=N)=O)ccn2)ncc1F (stereo not drawn) [VIP152]
- remaining binding at 1 µM (MAP3K4): 82%
- remaining binding at 0.1 µM (TNIK): 100%
- remaining binding at 1 µM (ALK(L1196M)): 91%
- remaining binding at 0.1 µM (RIPK4): 100%
- remaining binding at 1 µM (DRAK1): 71%
- IC50 (Imidazoline I2, Central): 1.4 µM
- Ki (Imidazoline I2, Central): 0.93 µM
- % Inh. (Imidazoline I2, Central; Conc. 10 μM): 82%
- remaining binding at 1 µM (EPHA1): 78%
- remaining binding at 1 µM (EIF2AK1): 100%
- remaining binding at 0.1 µM (TLK1): 98%
- remaining binding at 0.1 µM [1]: 100%
- remaining binding at 1 µM (DYRK1B): 20%
- remaining binding at 0.1 µM (PKNB(M.tuberculosis)): 100%
- remaining binding at 1 µM (EPHB6): 13%
- remaining binding at 1 µM (CAMK2A): 84%
- remaining binding at 1 µM (HPK1): 85%
- remaining binding at 1 µM (EGFR(L858R,T790M)): 81%
- remaining binding at 1 µM (CDK4): 71%
- remaining binding at 1 µM (DAPK2): 89%
- remaining binding at 1 µM (MAP4K2): 26%
- remaining binding at 0.1 µM (ULK1): 93%
- inhibition at 10 µM (Transporter, GABA): -20%
- inhibition at 10 µM (Tachykinin NK1): 19%
- inhibition at 10 µM (Endothelin ETB): 3%
- inhibition at 10 µM [2]: 3%
- remaining binding at 1 µM (MEK2): 88%
- remaining binding at 1 µM (EGFR(L858R)): 76%
- remaining binding at 1 µM (EGFR(T790M)): 94%
- remaining binding at 1 µM (ERBB3): 98%
- inhibition at 10 µM (Dopamine D1): 14%
- remaining binding at 1 µM (FGR): 66%
- remaining binding at 0.1 µM (RIOK3): 100%
- remaining binding at 1 µM (IKK-alpha): 93%
- inhibition at 10 µM (Endothelin ETA): 13%
- inhibition at 10 µM (Neuropeptide Y Y1): -3%
- remaining binding at 0.1 µM (SgK110): 100%
- remaining binding at 1 µM (GAK): 82%
- remaining binding at 1 µM (DCAMKL1): 86%
- inhibition at 10 µM (Calcium Channel N-Type): 4%
- remaining binding at 1 µM (DYRK1A): 12%
- inhibitory capacity against GSK3α (GSK3α): Inhibits
